Source: publication PMC12408683 (Archives of Toxicology, 2025)

Tests used:
[1] = set-up: method as in Carlsson et al. 2022; details: ref Carlsson et al. 2022; cited from earlier work
[2] = set-up: method as in Carlsson et al. 2022; details: concentrations below 25 µM; ref Carlsson et al. 2022; cited from earlier work
human liver biopsies = system: human liver biopsies; set-up: method as in Herrmann et al. 2013; details: ref Herrmann et al. 2013; cited from earlier work
HepG2-CYP1A2 cells [3] = details: positive control
Description: The CBMN assay was performed according to the OECD test guideline #487. Therefore, 2 × 10^5 cells were seeded in 3.5 cm dishes and allowed to adhere for 24 h. […] After the 24 h treatment, the medium was discarded and the cells were incubated with fresh medium, containing 6 µg/mL cytochalasin B as cytokinesis inhibitor. The cells were then left to grow for 72 h, allowing for 1.5–2 × cell cycles. Subsequently, the cells were rinsed with PBS and fixed with ice-cold methanol for 10 min at –20 °C. Cells were washed and embedded with Vectashield® containing DAPI (Vector Labs, Burlingame, CA, USA). The samples were analysed with a Zeiss Axio Observer 7 microscope equipped with an Axiocam 305 mono and a 63 × oil immersion objective (plan-apochromat 63x/1.40 DIC M27) using ZEN Software 3.2. 500 binucleated cells per sample were analysed for micronuclei formation.
As benchmark response (BMR) for all concentration–response curves (adducts, micronuclei), a 2.0-fold increase vs. solvent control was used (BMC100, critical effect size = 1). The determined BMC100 and the corresponding upper and lower boundary (BMCU and BMCL, respectively) of the 90% confidence interval (CI) were used for potency comparison.

calf thymus DNA = system: calf thymus DNA; set-up: method as in Bergau et al. 2021; details: ref Bergau et al. 2021; cited from earlier work
HepG2 cells [4] = assay: Resazurin reduction assay (cytotoxicity) in HepG2 cells; details: positive control 10 µM, time-dependent
HepG2-CYP1A2 cells [5] = assay: Alkaline comet assay (DNA strand breaks) in HepG2-CYP1A2 cells; details: positive control, 200 µM, 20 min
Description: (§1) As a positive control, tBuOOH (20 min, 200 µM) was used. Subsequently, the alkaline comet assay was performed to quantify DNA strand breaks as previously described (Haas et al. [2023b]). Per sample, at least 50 comets were counted with Comet IV software (Instem, Staffordshire, UK) using a Zeiss Axio Observer 7 microscope equipped with an Axiocam 305 mono and ZEN 3.2 software (Carl Zeiss, Jena, Germany).

HepG2 cells [6] = details: positive control, 200 µM, 20 min
Description: as §1

Structure (SMILES): C=CC(O)c1ccc(OC)c(OC)c1 (centres unmarked) [1′OH-ME, 1′-hydroxymethyleugenol]
- alkaline comet assay outcome [1]: negative
- cytotoxicity [2]: not cytotoxic

Structure (SMILES): C=CCc1ccc(OC)c(OC)c1 [ME, methyleugenol]
- ME-derived DNA adducts, median (human liver biopsies): 13 adducts/10^8 nts

Structure (SMILES): CO[C@@]12[C@H](COC(N)=O)C3=C(C(=O)C(C)=C(N)C3=O)N1C[C@@H]1N[C@@H]12 [MMC, mitomycin C, reference compound]
- MN (CBMN) (HepG2-CYP1A2 cells [3]): robust increase in MN

Structure (SMILES): C/C=C/c1ccc(OC)cc1 [anethole]
- E3′-N2-dG adduct levels vs equimolar ES concentrations (calf thymus DNA): several times lower

Structure (SMILES): COc1cc([C@@H]2c3cc4c(cc3[C@@H](O[C@@H]3O[C@@H]5CO[C@@H](C)O[C@H]5[C@H](O)[C@H]3O)[C@H]3COC(=O)[C@H]23)OCO4)cc(OC)c1O [etoposide, reference compound]
- cytotoxicity (resazurin reduction assay) (HepG2 cells [4]): cytotoxic

Structure (SMILES): CC(C)(C)OO [tBuOOH, tert-butyl hydroperoxide, reference compound]
- DNA strand breaks (alkaline comet assay) (HepG2-CYP1A2 cells [5]): strong DNA strand break induction
- DNA strand breaks (alkaline comet assay) (HepG2 cells [6]): strong DNA strand break induction
